Measurements reported in patent US8148403B2, “Substituted piperidyl-propane-thiols” (Boehringer Ingelheim International GmbH, priority 2006, dated 2012).

- melting point: 142 °C
Structure (SMILES): CCc1c(C2CCN(CCCSc3ccc(F)cc3)CC2)c2ccc(F)cc2n1-c1nc(C)ccc1O [Example 3]
